Data on 25 compounds can be found in patent publication US20260297070A1, “CYCLIC [COMPOUND LEFT OUT] WRN INHIBITORS” (Nimbus Wadjet, Inc., priority 2023, published 2026).

This assay deals with T1, human Werner helicase (WRN-BV08, Uniprot Q14191, amino acids 517-1235 with L1074F point mutation) (Homo sapiens, UniProt Q14191, L1074F).
T1 construct: Uniprot Q14191, amino acids 517-1235 with L1074F point mutation; TEV-cleavable 8×His (C, cleaved yes); made in house; host or cells: Sf9 insect cells (baculovirus)
T1 sequence (Q14191 with tags, fused parts or gaps L1074F limits assumed): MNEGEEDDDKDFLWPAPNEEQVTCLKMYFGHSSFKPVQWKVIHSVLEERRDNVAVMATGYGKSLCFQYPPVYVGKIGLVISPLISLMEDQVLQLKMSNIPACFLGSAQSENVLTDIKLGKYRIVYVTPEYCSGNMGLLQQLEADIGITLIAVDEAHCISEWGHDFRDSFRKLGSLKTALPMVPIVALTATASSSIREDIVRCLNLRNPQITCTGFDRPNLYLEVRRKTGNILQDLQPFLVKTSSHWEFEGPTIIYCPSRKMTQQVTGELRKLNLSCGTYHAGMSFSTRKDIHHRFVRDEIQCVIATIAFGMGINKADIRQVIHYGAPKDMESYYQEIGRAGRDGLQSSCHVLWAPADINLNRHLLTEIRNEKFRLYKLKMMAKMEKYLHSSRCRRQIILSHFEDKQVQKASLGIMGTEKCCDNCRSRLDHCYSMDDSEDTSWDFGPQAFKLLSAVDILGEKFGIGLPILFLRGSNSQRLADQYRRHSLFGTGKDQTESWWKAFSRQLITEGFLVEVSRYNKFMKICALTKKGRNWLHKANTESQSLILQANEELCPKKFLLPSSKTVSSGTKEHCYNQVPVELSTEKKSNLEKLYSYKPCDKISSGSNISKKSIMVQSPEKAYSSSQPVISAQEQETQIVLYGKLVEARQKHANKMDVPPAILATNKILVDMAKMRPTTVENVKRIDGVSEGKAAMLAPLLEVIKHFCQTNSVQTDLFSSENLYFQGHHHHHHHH
Briefly: WRN (BV08) ADP-Glo Assay. It is filed as biochemical. Particulars: 0.15 nM WRN, 5 μM ATP, 0.1 nM DNA duplex, 15 min preincubation, 60 min at 25° C., pH 7.5, 1% DMSO; read-out: ADP-Glo_hWRN_IC50. The method, boiled down:
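0.15 nM WRN (aa 517-1235, L1074F, Sf9-expressed, tag cleaved) preincubated 15 min at 25 °C with compound, then 5 μM ATP and 0.1 nM DNA duplex added for 60 min. Buffer: 20 mM Bicine pH 7.5, 1 mM MgCl2, 10 mM KCl, 1 mM TCEP; 1% DMSO. ADP-Glo luminescence; IC50 by 4-parameter fit.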
Take `O=C(Cn1cc(-c2ccc(F)cc2)cn1)N(Cc1ccnc(OC(F)(F)F)c1)C1C=CS(=O)(=O)C1` (stereo not shown) [I-753, N-(1,1-dioxo-2,3-dihydro-1lambda6-thiophen-3-yl)-2-[4-(4-fluorophenyl)-1H-pyrazol-1-yl]-N-{[2-(trifluoromethoxy)pyridin-4-yl]methyl}acetamide]: the IC50 was in the range of 500 to 5000 nM.

Turning to `Cc1sc(CN(C(=O)Cc2ccc(-c3ccc(F)c(F)c3)cc2F)C2C=CS(=O)(=O)C2)nc1C1CC1` (stereo not shown) [I-754, N-[(4-cyclopropyl-5-methyl-1,3-thiazol-2-yl)methyl]-N-(1,1-dioxo-2,3-dihydro-1lambda6-thiophen-3-yl)-2-{3,3′,4′-trifluoro-[1,1′-biphenyl]-4-yl}acetamide], the IC50 was 500 to 5000 nM.

Consider `COc1ccc2c(c1)CC(C(=O)N(Cc1ccncc1)C1C=CS(=O)(=O)C1)CO2` (stereo not shown) [I-756, N-(1,1-dioxo-2,3-dihydro-1lambda6-thiophen-3-yl)-6-methoxy-N-[(pyridin-4-yl)methyl]-3,4-dihydro-2H-1-benzopyran-3-carboxamide], for which the IC50 was > 50000 nM.

For the compound `O=C(Cc1ccc(S(F)(F)(F)(F)F)cc1)N(Cc1nn[nH]n1)C1C=CS(=O)(=O)C1` (stereo not shown) [I-757, N-(1,1-dioxo-2,3-dihydro-1lambda6-thiophen-3-yl)-2-[4-(pentafluoro-lambda6-sulfanyl)phenyl]-N-[(2H-1,2,3,4-tetrazol-5-yl)methyl]acetamide], the IC50 is > 50000 nM.

On to `COc1cc(CN(C(=O)C(c2ccc(-c3ccc(F)c(F)c3)cc2F)n2cc(C(C)(C)O)cn2)[C@@H]2C=CS(=O)(=O)C2)ccn1` (stereo partly drawn) [I-758, N-[(3R)-1,1-dioxo-2,3-dihydro-1lambda6-thiophen-3-yl]-2-[4-(2-hydroxypropan-2-yl)-1H-pyrazol-1-yl]-N-[(2-methoxypyridin-4-yl)methyl]-2-{3,3′,4′-trifluoro-[1,1′-biphenyl]-4-yl}acetamide], for which the IC50 lay in the range of 500 to 5000 nM.

In the case of `O=C(Cn1cc(-c2ccc(F)c(F)c2)cn1)N(Cc1ccnc(N2CCOCC2)c1)C1C=CS(=O)(=O)C1` (stereo not shown) [I-759, 2-[4-(3,4-difluorophenyl)-1H-pyrazol-1-yl]-N-(1,1-dioxo-2,3-dihydro-1lambda6-thiophen-3-yl)-N-{[2-(morpholin-4-yl)pyridin-4-yl]methyl}acetamide], the IC50 is 500 to 5000 nM.

In the case of `O=C(Cn1cc(-c2ccc(F)c(F)c2)cn1)N(Cc1ccnc(N2CCC2)c1)C1C=CS(=O)(=O)C1` (stereo not shown) [I-760, N-{[2-(azetidin-1-yl)pyridin-4-yl]methyl}-2-[4-(3,4-difluorophenyl)-1H-pyrazol-1-yl]-N-(1,1-dioxo-2,3-dihydro-1lambda6-thiophen-3-yl)acetamide], the IC50 is < 500 nM.

Consider `O=C(Cn1cc(-c2ccc(F)c(F)c2)cn1)N(Cc1ccnc(OCCN2CCOCC2)c1)C1C=CS(=O)(=O)C1` (stereo not shown) [I-761, 2-[4-(3,4-difluorophenyl)-1H-pyrazol-1-yl]-N-(1,1-dioxo-2,3-dihydro-1lambda6-thiophen-3-yl)-N-({2-[2-(morpholin-4-yl)ethoxy]pyridin-4-yl}methyl)acetamide], for which the IC50 is < 500 nM.

For the compound `COc1ccc(CN(C(=O)Cn2cc(-c3ccc(F)c(F)c3)cn2)C2C=CS(=O)(=O)C2)cn1` (stereo not shown) [I-762, 2-[4-(3,4-difluorophenyl)-1H-pyrazol-1-yl]-N-(1,1-dioxo-2,3-dihydro-1lambda6-thiophen-3-yl)-N-[(6-methoxypyridin-3-yl)methyl]acetamide], the IC50 lay within 500 to 5000 nM.

For `COc1cc(CN(C(=O)Cn2cc(-c3cc(F)c(F)c(F)c3)cn2)[C@@H]2C=CS(=O)(=O)C2)ccn1` [I-764, N-[(3R)-1,1-dioxo-2,3-dihydro-1lambda6-thiophen-3-yl]-N-[(2-methoxypyridin-4-yl)methyl]-2-[4-(3,4,5-trifluorophenyl)-1H-pyrazol-1-yl]acetamide], the IC50 is < 500 nM.

Turning to `COc1cc(CN(C(=O)Cn2nc3ccc(C(F)(F)F)cc3c2C)[C@@H]2C=CS(=O)(=O)C2)ccn1` [I-766, N-[(3R)-1,1-dioxo-2,3-dihydro-1lambda6-thiophen-3-yl]-N-[(2-methoxypyridin-4-yl)methyl]-2-[3-methyl-5-(trifluoromethyl)-2H-indazol-2-yl]acetamide], the IC50 was 5000 to 10000 nM.

Turning to `CC(C)(O)COc1cc(CN(C(=O)Cc2ccc(S(F)(F)(F)(F)F)cc2)C2C=CS(=O)(=O)C2)ccn1` (stereo not shown) [I-768, N-(1,1-dioxo-2,3-dihydro-1lambda6-thiophen-3-yl)-N-{[2-(2-hydroxy-2-methylpropoxy)pyridin-4-yl]methyl}-2-[4-(pentafluoro-lambda6-sulfanyl)phenyl]acetamide], the IC50 was < 500 nM.

With `COc1cc(CN(C(=O)Cn2ncc3cc(C(F)(F)C(F)(F)F)ccc32)[C@@H]2C=CS(=O)(=O)C2)ccn1` [I-770, N-[(3R)-1,1-dioxo-2,3-dihydro-1lambda6-thiophen-3-yl]-N-[(2-methoxypyridin-4-yl)methyl]-2-[5-(1,1,2,2,2-pentafluoroethyl)-1H-indazol-1-yl]acetamide], the IC50 was 500 to 5000 nM.

`COc1cc(CN(C(=O)Cn2cc3cc(C(F)(F)C(F)(F)F)ccc3n2)[C@@H]2C=CS(=O)(=O)C2)ccn1` [I-771, N-[(3R)-1,1-dioxo-2,3-dihydro-1lambda6-thiophen-3-yl]-N-[(2-methoxypyridin-4-yl)methyl]-2-[5-(1,1,2,2,2-pentafluoroethyl)-2H-indazol-2-yl]acetamide]: the IC50 was < 500 nM.

On to `O=C(Cn1cc(-c2cc(F)c(F)c(F)c2)cn1)N(Cc1ccnc(Oc2ccncc2)c1)C1C=CS(=O)(=O)C1` (stereo not shown) [I-772, N-(1,1-dioxo-2,3-dihydro-1lambda6-thiophen-3-yl)-N-{[2-(pyridin-4-yloxy)pyridin-4-yl]methyl}-2-[4-(3,4,5-trifluorophenyl)-1H-pyrazol-1-yl]acetamide], for which the IC50 is < 500 nM.

As for `CN(Cc1ccncc1)C(=O)c1ccc(CN(C(=O)Cc2ccc(-c3ccc(F)c(F)c3)cc2F)C2C=CS(=O)(=O)C2)cc1` (stereo not shown) [I-778, 4-{[N-(1,1-dioxo-2,3-dihydro-1lambda6-thiophen-3-yl)-2-{3,3′,4′-trifluoro-[1,1′-biphenyl]-4-yl}acetamido]methyl}-N-methyl-N-[(pyridin-4-yl)methyl]benzamide], the IC50 fell in the range of 500 to 5000 nM.

`CN(C)C(=O)c1ccc(CN(C(=O)Cc2ccc(-c3ccc(F)c(F)c3)cc2F)C2C=CS(=O)(=O)C2)cc1` (stereo not shown) [I-779, 4-{[N-(1,1-dioxo-2,3-dihydro-1lambda6-thiophen-3-yl)-2-{3,3′,4′-trifluoro-[1,1′-biphenyl]-4-yl}acetamido]methyl}-N,N-dimethylbenzamide]: the IC50 is 500 to 5000 nM.

For `O=C(c1ccc(CN(C(=O)Cc2ccc(-c3ccc(F)c(F)c3)cc2F)C2C=CS(=O)(=O)C2)cc1)N1CCOCC1` (stereo not shown) [I-780, N-(1,1-dioxo-2,3-dihydro-1lambda6-thiophen-3-yl)-N-{[4-(morpholine-4-carbonyl)phenyl]methyl}-2-{3,3′,4′-trifluoro-[1,1′-biphenyl]-4-yl}acetamide], the IC50 was 500 to 5000 nM.

For `O=C(Cn1cc(-c2cc(F)c(F)c(F)c2)cn1)N(Cc1ccc(Cc2ccncc2)cc1)C1C=CS(=O)(=O)C1` (stereo not shown) [I-782, N-(1,1-dioxo-2,3-dihydro-1lambda6-thiophen-3-yl)-N-({4-[(pyridin-4-yl)methyl]phenyl}methyl)-2-[4-(3,4,5-trifluorophenyl)-1H-pyrazol-1-yl]acetamide], the IC50 was < 500 nM.

`O=C(Cn1cc(-c2cc(F)c(F)c(F)c2)cn1)N(Cc1ccc(OCc2ccncc2)cc1)C1C=CS(=O)(=O)C1` (stereo not shown) [I-783, N-(1,1-dioxo-2,3-dihydro-1lambda6-thiophen-3-yl)-N-({4-[(pyridin-4-yl)methoxy]phenyl}methyl)-2-[4-(3,4,5-trifluorophenyl)-1H-pyrazol-1-yl]acetamide]: the IC50 was < 500 nM.

`COc1cc(CN(C(=O)C2CCc3c([nH]c4cccc(Cl)c34)C2)[C@@H]2C=CS(=O)(=O)C2)ccn1` (stereo partly drawn) [I-785, 5-chloro-N-[(3R)-1,1-dioxo-2,3-dihydro-1lambda6-thiophen-3-yl]-N-[(2-methoxypyridin-4-yl)methyl]-2,3,4,9-tetrahydro-1H-carbazole-2-carboxamide]: the IC50 was > 50000 nM.

Regarding `COc1cc(CN(C(=O)C2CCc3[nH]c4cc(Cl)ccc4c3C2)[C@@H]2C=CS(=O)(=O)C2)ccn1` (stereo partly drawn) [I-786, 7-chloro-N-[(3R)-1,1-dioxo-2,3-dihydro-1lambda6-thiophen-3-yl]-N-[(2-methoxypyridin-4-yl)methyl]-2,3,4,9-tetrahydro-1H-carbazole-3-carboxamide], the IC50 fell in the range of 500 to 5000 nM.

On to `O=C(Cn1cc(-c2ccc(F)c(F)c2)cn1)N(Cc1ccnc(N2CCNCC2)c1)C1C=CS(=O)(=O)C1` (stereo not shown) [I-787, 2-[4-(3,4-difluorophenyl)-1H-pyrazol-1-yl]-N-(1,1-dioxo-2,3-dihydro-1lambda6-thiophen-3-yl)-N-{[2-(piperazin-1-yl)pyridin-4-yl]methyl}acetamide], for which the IC50 fell in the range of 500 to 5000 nM.

`CN(CCc1ccncc1)C(=O)c1ccc(CN(C(=O)Cc2ccc(-c3ccc(F)c(F)c3)cc2F)C2C=CS(=O)(=O)C2)cc1` (stereo not shown) [I-791, 4-{[N-(1,1-dioxo-2,3-dihydro-1lambda6-thiophen-3-yl)-2-{3,3′,4′-trifluoro-[1,1′-biphenyl]-4-yl}acetamido]methyl}-N-methyl-N-[2-(pyridin-4-yl)ethyl]benzamide]: the IC50 was in the range of 500 to 5000 nM.

`COc1cc(CN(C(=O)C(O/C=C/S(C)(=O)=O)c2ccc(-c3ccc(F)c(F)c3)cc2F)[C@@H]2C=CS(=O)(=O)C2)ccn1` (stereo partly drawn) [I-793, N-[(3R)-1,1-dioxo-2,3-dihydro-1lambda6-thiophen-3-yl]-2-{[(1E)-2-methanesulfonylethenyl]oxy}-N-[(2-methoxypyridin-4-yl)methyl]-2-{3,3′,4′-trifluoro-[1,1′-biphenyl]-4-yl}acetamide]: the IC50 was in the range of 500 to 5000 nM.
